#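 Values below derive from 48-hour exposures of cells grown in 96-well plates, with endpoints linearly interpolated between the two concentrations bracketing the appropriate inhibition level. TGI is the concentration that stops growth completely.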
# Tests used:
# Assay in all cases: NCI anticancer screen, dose series, 48 h
# MDA-MB-231 breast = system: MDA-MB-231 breast
# SF-295 CNS = system: SF-295 CNS
# HS 578T breast = system: HS 578T breast
# SK-MEL-28 melanoma = system: SK-MEL-28 melanoma
# NCI/ADR-RES ovarian = system: NCI/ADR-RES ovarian
# LOX IMVI melanoma = system: LOX IMVI melanoma
# UACC-257 melanoma = system: UACC-257 melanoma
# BT-549 breast = system: BT-549 breast
# HT29 colon = system: HT29 colon
# PC-3 prostate = system: PC-3 prostate
# T-47D breast = system: T-47D breast
# K-562 leukemia = system: K-562 leukemia
# MOLT-4 leukemia = system: MOLT-4 leukemia
# HCT-15 colon = system: HCT-15 colon
# 786-0 renal = system: 786-0 renal
# CCRF-CEM leukemia = system: CCRF-CEM leukemia
# MDA-N = system: MDA-N
# ACHN renal = system: ACHN renal
# COLO 205 colon = system: COLO 205 colon
# HOP-62 NSCLC = system: HOP-62 NSCLC
# SK-MEL-2 melanoma = system: SK-MEL-2 melanoma
# SK-OV-3 ovarian = system: SK-OV-3 ovarian
# NCI-H522 lung = system: NCI-H522 lung
# SR leukemia = system: SR leukemia
# NCI-H226 lung = system: NCI-H226 lung
# MALME-3M melanoma = system: MALME-3M melanoma
# UO-31 renal = system: UO-31 renal
# OVCAR-4 ovarian = system: OVCAR-4 ovarian
# SNB-19 CNS = system: SNB-19 CNS
# A498 renal = system: A498 renal
# HOP-92 NSCLC = system: HOP-92 NSCLC
# EKVX NSCLC = system: EKVX NSCLC
# UACC-62 melanoma = system: UACC-62 melanoma
# HCC-2998 colon = system: HCC-2998 colon
# SW-620 colon = system: SW-620 colon
# KM12 colon = system: KM12 colon
# RXF 393 renal = system: RXF 393 renal
# HCT-116 colon = system: HCT-116 colon
# DU-145 prostate = system: DU-145 prostate
# U251 CNS = system: U251 CNS
# CAKI-1 renal = system: CAKI-1 renal
# A549 NSCLC = system: A549 NSCLC
# TK-10 renal = system: TK-10 renal
# MDA-MB-435 = system: MDA-MB-435
# NCI-H460 lung = system: NCI-H460 lung
# SNB-75 CNS = system: SNB-75 CNS
# OVCAR-3 ovarian = system: OVCAR-3 ovarian
# NCI-H23 lung = system: NCI-H23 lung
# M14 melanoma = system: M14 melanoma
# SF-268 CNS = system: SF-268 CNS
# OVCAR-5 ovarian = system: OVCAR-5 ovarian
# OVCAR-8 ovarian = system: OVCAR-8 ovarian
# RPMI-8226 leukemia = system: RPMI-8226 leukemia
# MCF7 breast = system: MCF7 breast
# SK-MEL-5 melanoma = system: SK-MEL-5 melanoma
# SF-539 CNS = system: SF-539 CNS
# SN12C renal = system: SN12C renal
# HL-60(TB) leukemia = system: HL-60(TB) leukemia
# IGROV1 ovarian = system: IGROV1 ovarian
smiles,measurement,setting,value
Oc1ccc(-c2nn3c(CCCCCCCCc4nnc5sc(-c6ccc(O)cc6)nn45)nnc3s2)cc1,TGI,MDA-MB-231 breast,> 100 µM
same,TGI,SF-295 CNS,> 100 µM
same,TGI,HS 578T breast,> 100 µM
same,TGI,SK-MEL-28 melanoma,> 100 µM
same,TGI,NCI/ADR-RES ovarian,> 100 µM
same,TGI,LOX IMVI melanoma,> 100 µM
same,TGI,UACC-257 melanoma,> 100 µM
same,TGI,BT-549 breast,> 100 µM
same,TGI,HT29 colon,> 100 µM
same,TGI,PC-3 prostate,> 100 µM
same,TGI,T-47D breast,> 100 µM
same,TGI,K-562 leukemia,> 100 µM
same,TGI,MOLT-4 leukemia,> 100 µM
same,TGI,HCT-15 colon,> 100 µM
same,TGI,786-0 renal,> 100 µM
same,TGI,CCRF-CEM leukemia,> 100 µM
same,TGI,MDA-N,> 100 µM
same,TGI,ACHN renal,> 100 µM
same,TGI,COLO 205 colon,> 100 µM
same,TGI,HOP-62 NSCLC,> 100 µM
same,TGI,SK-MEL-2 melanoma,> 100 µM
same,TGI,SK-OV-3 ovarian,> 100 µM
same,TGI,NCI-H522 lung,> 100 µM
same,TGI,SR leukemia,> 100 µM
same,TGI,NCI-H226 lung,> 100 µM
same,TGI,MALME-3M melanoma,> 100 µM
same,TGI,UO-31 renal,> 100 µM
same,TGI,OVCAR-4 ovarian,> 100 µM
same,TGI,SNB-19 CNS,> 100 µM
same,TGI,A498 renal,> 100 µM
same,TGI,HOP-92 NSCLC,> 100 µM
same,TGI,EKVX NSCLC,> 100 µM
same,TGI,UACC-62 melanoma,> 100 µM
same,TGI,HCC-2998 colon,> 100 µM
same,TGI,SW-620 colon,> 100 µM
same,TGI,KM12 colon,> 100 µM
same,TGI,RXF 393 renal,> 100 µM
same,TGI,HCT-116 colon,> 100 µM
same,TGI,DU-145 prostate,> 100 µM
same,TGI,U251 CNS,> 100 µM
same,TGI,CAKI-1 renal,> 100 µM
same,TGI,A549 NSCLC,> 100 µM
same,TGI,TK-10 renal,> 100 µM
same,TGI,MDA-MB-435,> 100 µM
same,TGI,NCI-H460 lung,> 100 µM
same,TGI,SNB-75 CNS,> 100 µM
same,TGI,OVCAR-3 ovarian,> 100 µM
same,TGI,NCI-H23 lung,> 100 µM
same,TGI,M14 melanoma,> 100 µM
same,TGI,SF-268 CNS,> 100 µM
same,TGI,OVCAR-5 ovarian,> 100 µM
same,TGI,OVCAR-8 ovarian,> 100 µM
same,TGI,RPMI-8226 leukemia,> 100 µM
same,TGI,MCF7 breast,> 100 µM
same,TGI,SK-MEL-5 melanoma,> 100 µM
same,TGI,SF-539 CNS,> 100 µM
same,TGI,SN12C renal,> 100 µM
CN(C)c1ccc(/C=C/c2nc3ccccc3s2)cc1,TGI,MDA-MB-231 breast,> 100 µM
same,TGI,SF-295 CNS,> 100 µM
same,TGI,HS 578T breast,> 100 µM
same,TGI,SK-MEL-28 melanoma,> 100 µM
same,TGI,NCI/ADR-RES ovarian,> 100 µM
same,TGI,LOX IMVI melanoma,> 100 µM
same,TGI,UACC-257 melanoma,> 100 µM
same,TGI,BT-549 breast,> 100 µM
same,TGI,HT29 colon,> 100 µM
same,TGI,PC-3 prostate,> 100 µM
same,TGI,HL-60(TB) leukemia,> 100 µM
same,TGI,T-47D breast,> 100 µM
same,TGI,K-562 leukemia,> 100 µM
same,TGI,MOLT-4 leukemia,> 100 µM
same,TGI,HCT-15 colon,> 100 µM
same,TGI,786-0 renal,> 100 µM
same,TGI,CCRF-CEM leukemia,> 100 µM
same,TGI,MDA-N,> 100 µM
same,TGI,ACHN renal,> 100 µM
same,TGI,COLO 205 colon,> 100 µM
same,TGI,HOP-62 NSCLC,> 100 µM
same,TGI,SK-MEL-2 melanoma,> 100 µM
same,TGI,SK-OV-3 ovarian,> 100 µM
same,TGI,NCI-H522 lung,> 100 µM
same,TGI,SR leukemia,> 100 µM
same,TGI,NCI-H226 lung,> 100 µM
same,TGI,MALME-3M melanoma,> 100 µM
same,TGI,UO-31 renal,> 100 µM
same,TGI,OVCAR-4 ovarian,> 100 µM
same,TGI,SNB-19 CNS,> 100 µM
same,TGI,A498 renal,> 100 µM
same,TGI,HOP-92 NSCLC,> 100 µM
same,TGI,EKVX NSCLC,> 100 µM
same,TGI,HCC-2998 colon,> 100 µM
same,TGI,SW-620 colon,> 100 µM
same,TGI,KM12 colon,> 100 µM
same,TGI,RXF 393 renal,> 100 µM
same,TGI,HCT-116 colon,> 100 µM
same,TGI,DU-145 prostate,> 100 µM
same,TGI,U251 CNS,> 100 µM
same,TGI,A549 NSCLC,> 100 µM
same,TGI,TK-10 renal,> 100 µM
same,TGI,MDA-MB-435,> 100 µM
same,TGI,NCI-H460 lung,> 100 µM
same,TGI,NCI-H23 lung,> 100 µM
same,TGI,M14 melanoma,> 100 µM
same,TGI,SF-268 CNS,> 100 µM
same,TGI,OVCAR-5 ovarian,> 100 µM
same,TGI,OVCAR-8 ovarian,> 100 µM
same,TGI,RPMI-8226 leukemia,> 100 µM
same,TGI,MCF7 breast,> 100 µM
same,TGI,SK-MEL-5 melanoma,> 100 µM
same,TGI,SF-539 CNS,> 100 µM
same,TGI,SN12C renal,> 100 µM
same,TGI,IGROV1 ovarian,> 100 µM
COC(=O)c1c(OC(C)=O)ccc2c1c1c(OC(C)=O)c3ccccc3c(OC(C)=O)c1n2C,TGI,MDA-MB-231 breast,> 100 µM
same,TGI,SF-295 CNS,70.7 µM
same,TGI,HS 578T breast,62.5 µM
same,TGI,SK-MEL-28 melanoma,> 100 µM
same,TGI,NCI/ADR-RES ovarian,> 100 µM
same,TGI,BT-549 breast,57.1 µM
same,TGI,HT29 colon,> 100 µM
same,TGI,PC-3 prostate,> 100 µM
same,TGI,HL-60(TB) leukemia,48.1 µM
same,TGI,T-47D breast,50.5 µM
same,TGI,K-562 leukemia,43.2 µM
same,TGI,MOLT-4 leukemia,39.1 µM
same,TGI,HCT-15 colon,> 100 µM
same,TGI,786-0 renal,94.8 µM
same,TGI,CCRF-CEM leukemia,60.5 µM
same,TGI,MDA-N,> 100 µM
same,TGI,ACHN renal,85 µM
same,TGI,COLO 205 colon,> 100 µM
same,TGI,HOP-62 NSCLC,65.1 µM
same,TGI,SK-MEL-2 melanoma,36 µM
same,TGI,SK-OV-3 ovarian,52.4 µM
same,TGI,NCI-H522 lung,28.3 µM
same,TGI,SR leukemia,34.5 µM
same,TGI,NCI-H226 lung,> 100 µM
same,TGI,MALME-3M melanoma,81.2 µM
same,TGI,UO-31 renal,> 100 µM
same,TGI,OVCAR-4 ovarian,93.5 µM
same,TGI,SNB-19 CNS,> 100 µM
same,TGI,HOP-92 NSCLC,38.7 µM
same,TGI,EKVX NSCLC,39.2 µM
same,TGI,UACC-62 melanoma,49.4 µM
same,TGI,HCC-2998 colon,52.1 µM
same,TGI,KM12 colon,51.1 µM
same,TGI,RXF 393 renal,> 100 µM
same,TGI,HCT-116 colon,58.9 µM
same,TGI,DU-145 prostate,> 100 µM
same,TGI,U251 CNS,90.2 µM
same,TGI,CAKI-1 renal,60 µM
same,TGI,A549 NSCLC,> 100 µM
same,TGI,TK-10 renal,67.8 µM
same,TGI,MDA-MB-435,> 100 µM
same,TGI,NCI-H460 lung,> 100 µM
same,TGI,SNB-75 CNS,26.4 µM
same,TGI,OVCAR-3 ovarian,44.5 µM
same,TGI,NCI-H23 lung,> 100 µM
same,TGI,M14 melanoma,99.4 µM
same,TGI,SF-268 CNS,77.3 µM
same,TGI,OVCAR-5 ovarian,> 100 µM
same,TGI,OVCAR-8 ovarian,85.2 µM
same,TGI,RPMI-8226 leukemia,47.4 µM
same,TGI,MCF7 breast,> 100 µM
same,TGI,SK-MEL-5 melanoma,42.1 µM
same,TGI,SF-539 CNS,61.7 µM
same,TGI,SN12C renal,> 100 µM
same,TGI,IGROV1 ovarian,35.5 µM

# — PubChem BioAssay (NCI)
